Experimental data from US12344595B2, “2-amino-n-phenyl-nicotinamides as NAV1.8 inhibitors” (Merck Sharp & Dohme LLC, priority 2018, dated 2025).
pIC50: −log10 of the molar value.

These compounds were tested against human Nav1.8 (Homo sapiens (Human), UniProt Q9Y5Y9) (assay: Nav1.8 Qube automated patch-clamp assay). Conditions: Nav1.8 Qube Assay; human Nav1.8 channels stably expressed in HEK 293 cells.
Chain of human Nav1.8 (Q9Y5Y9 whole entry): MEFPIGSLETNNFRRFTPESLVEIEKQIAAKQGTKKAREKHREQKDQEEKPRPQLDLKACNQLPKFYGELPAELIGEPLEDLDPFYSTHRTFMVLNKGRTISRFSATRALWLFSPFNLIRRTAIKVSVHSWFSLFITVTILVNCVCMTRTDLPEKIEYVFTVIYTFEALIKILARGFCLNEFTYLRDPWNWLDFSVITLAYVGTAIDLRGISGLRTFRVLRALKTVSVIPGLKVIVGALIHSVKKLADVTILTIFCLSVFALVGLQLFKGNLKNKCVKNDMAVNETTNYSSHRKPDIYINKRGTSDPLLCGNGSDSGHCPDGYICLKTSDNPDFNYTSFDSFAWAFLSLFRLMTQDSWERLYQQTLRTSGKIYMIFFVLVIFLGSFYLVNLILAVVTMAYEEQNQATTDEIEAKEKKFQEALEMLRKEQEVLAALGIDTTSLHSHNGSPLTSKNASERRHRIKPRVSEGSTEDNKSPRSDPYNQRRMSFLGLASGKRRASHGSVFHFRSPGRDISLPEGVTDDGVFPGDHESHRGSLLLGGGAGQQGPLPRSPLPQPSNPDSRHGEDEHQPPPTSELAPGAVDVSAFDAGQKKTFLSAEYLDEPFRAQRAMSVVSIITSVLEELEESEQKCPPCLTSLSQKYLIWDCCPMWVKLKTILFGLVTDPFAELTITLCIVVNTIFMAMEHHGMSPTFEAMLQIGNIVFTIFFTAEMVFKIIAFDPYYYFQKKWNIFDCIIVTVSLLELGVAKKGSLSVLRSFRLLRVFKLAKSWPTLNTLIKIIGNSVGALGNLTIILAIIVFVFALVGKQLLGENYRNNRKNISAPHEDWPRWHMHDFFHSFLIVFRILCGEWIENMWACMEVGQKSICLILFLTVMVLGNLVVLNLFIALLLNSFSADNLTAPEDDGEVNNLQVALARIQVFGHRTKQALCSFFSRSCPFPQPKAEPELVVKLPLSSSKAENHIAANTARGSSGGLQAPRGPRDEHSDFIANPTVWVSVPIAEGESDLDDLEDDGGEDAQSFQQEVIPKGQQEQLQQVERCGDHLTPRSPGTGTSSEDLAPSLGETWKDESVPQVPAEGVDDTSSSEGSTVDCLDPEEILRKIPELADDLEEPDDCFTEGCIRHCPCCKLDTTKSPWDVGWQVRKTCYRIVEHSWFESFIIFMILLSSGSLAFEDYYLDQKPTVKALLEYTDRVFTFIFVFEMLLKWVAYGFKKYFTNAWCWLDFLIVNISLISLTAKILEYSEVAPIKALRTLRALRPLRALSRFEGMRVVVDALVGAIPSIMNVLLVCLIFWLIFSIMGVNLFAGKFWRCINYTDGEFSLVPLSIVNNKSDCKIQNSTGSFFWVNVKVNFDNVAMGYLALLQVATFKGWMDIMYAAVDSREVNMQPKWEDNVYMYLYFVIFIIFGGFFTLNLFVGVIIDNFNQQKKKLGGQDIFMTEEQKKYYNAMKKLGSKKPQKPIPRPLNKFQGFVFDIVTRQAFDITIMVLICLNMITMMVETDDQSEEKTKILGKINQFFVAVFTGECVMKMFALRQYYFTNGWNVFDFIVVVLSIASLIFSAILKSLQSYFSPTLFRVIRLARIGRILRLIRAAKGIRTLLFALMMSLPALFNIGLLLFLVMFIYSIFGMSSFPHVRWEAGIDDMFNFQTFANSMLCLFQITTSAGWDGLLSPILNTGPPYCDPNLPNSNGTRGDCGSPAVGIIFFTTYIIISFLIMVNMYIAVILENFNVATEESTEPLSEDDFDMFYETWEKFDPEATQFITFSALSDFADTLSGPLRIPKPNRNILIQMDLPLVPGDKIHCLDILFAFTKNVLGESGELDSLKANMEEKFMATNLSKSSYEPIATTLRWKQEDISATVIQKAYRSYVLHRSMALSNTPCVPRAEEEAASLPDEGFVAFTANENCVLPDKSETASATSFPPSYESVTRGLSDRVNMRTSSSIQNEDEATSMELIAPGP
Format: cell-based
Method in brief: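 Whole-cell automated patch clamp was run at room temperature on HEK293 cells stably expressing the channel. A 1 Hz, 10 s train of 20 ms pulses to 10 mV from −90 mV (repolarizing to −67 mV) was applied. Peak currents at the 1st and 10th pulses gave resting and inactivated-state IC50 values by Hill fit.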
Compound `CS(=O)(=O)c1cccc(NC(=O)c2cc(C(F)(F)F)cnc2N2CCC3(CC2)CC3)c1` [Example 99, 2-(6-azaspiro[2.5]octan-6-yl)-N-(3-methylsulfonylphenyl)-5-(trifluoromethyl)-pyridine-3-carboxamide] has a pIC50 of 6.88.
`NS(=O)(=O)c1cccc(NC(=O)c2cc(C(F)(F)F)cnc2N2CCCC3(CC2)CC3)c1` [Example 79, 2-(6-azaspiro[2.6]nonan-6-yl)-N-(3-sulfamoyl-phenyl)-5-(trifluoro-methyl)nicotinamide] gave a pIC50 of 8.00.
`CS(=O)(=O)c1cccc(NC(=O)c2cc(C(F)(F)F)cnc2N2CCC3(CC3)C(F)(F)C2)c1` [Example 101, 2-(8,8-difluoro-6-azaspiro[2.5]octan-6-yl)-N-(3-methyl-sulfonylphenyl)-5-(trifluoromethyl) pyridine-3-carboxamide] showed a pIC50 of 6.59.
For `NS(=O)(=O)c1cccc(NC(=O)c2cc(C(F)(F)F)cnc2N2CCCO[C@H](C(F)(F)F)C2)c1` [Example 147, N-(3-sulfamoylphenyl)-5-(trifluoromethyl)-2-[(2S)-2-(trifluoro-methyl)-1,4-oxazepan-4-yl]pyridine-3-carboxamide], the pIC50 was 7.49.
For `NS(=O)(=O)c1cccc(NC(=O)c2cc(C(F)(F)F)cnc2N2CC3CCC3(C(F)(F)F)C2)c1` (single isomer, unassigned) [Example 131, N-(3-sulfamoylphenyl)-5-(trifluoromethyl)-2-[(1S,5S or 1R,5R)-1-(trifluoromethyl)-3-azabicyclo[3.2.0]heptan-3-yl]pyridine-3-carboxamide], the pIC50 was 6.95.
For `NS(=O)(=O)c1cccc(NC(=O)c2ccc(C(F)(F)F)nc2N2CCCCC2)c1` [Example 77, 2-(1-piperidyl)-N-(3-sulfamoylphenyl)-6-(trifluoromethyl) pyridine-3-carboxamide], the pIC50 was 6.54.
For `Cc1ccc(C(=O)Nc2cccc(S(N)(=O)=O)c2)c(N2CCCCCC2)n1` [Example 90, 2-(azepan-1-yl)-6-methyl-N-(3-sulfamoyl-phenyl)pyridine-3-carboxamide], the pIC50 was 7.77.
Work on `COc1nc(N2CCCCCC2)c(C(=O)Nc2cccc(S(N)(=O)=O)c2)cc1C(F)(F)F` [Example 169, 2-(azepan-1-yl)-6-methoxy-N-(3-sulfamoylphenyl)-5-(trifluoromethyl)nicotinamide] yielded a pIC50 of 7.38.
With `NS(=O)(=O)c1cccc(NC(=O)c2cc(C(F)(F)F)cnc2N2C[C@@H]3[C@H](C2)C(F)(F)C3(F)F)c1` [Example 133, N-(3-sulfamoylphenyl)-2-[(1R,5S)-6,6,7,7-tetrafluoro-3-azabicyclo-[3.2.0]heptan-3-yl]-5-(trifluoromethyl)-pyridine-3-carboxamide] the pIC50 was 7.68.
Compound `Cc1nc(N2CCCCCC2)c(C(=O)Nc2cccc(S(N)(=O)=O)c2)cc1C(F)(F)F` [Example 168, 2-(azepan-1-yl)-6-methyl-N-(3-sulfamoylphenyl)-5-(trifluoromethyl)nicotinamide] has a pIC50 of 8.49.
In the case of `Cc1nc(N2CCC(F)(F)CC2)c(C(=O)Nc2cccc(C(N)=O)c2)c(C)c1Cl` [Example 16, N-(3-carbamoyl-phenyl)-5-chloro-2-(4,4-difluoro-1-piperidyl)-4,6-dimethyl-pyridine-3-carboxamide], the pIC50 was 7.62.
In the case of `NS(=O)(=O)c1cccc(NC(=O)c2cc(OC(F)(F)F)cnc2N2CCCC(F)(F)CC2)c1` [Example 39, 2-(4,4-difluoroazepan-1-yl)-N-(3-sulfamoylphenyl)-5-(trifluoromethoxy)nicotinamide], the pIC50 was 8.60.
`NC(=O)c1cccc(NC(=O)c2ccc(Cl)nc2N2CCCC(F)(F)CC2)c1` [Example 14, N-(3-carbamoyl-phenyl)-6-chloro-2-(4,4-difluoroazepan-1-yl)pyridine-3-carboxamide] was tested, and the pIC50 was 7.74.
With `CC(C)(C)c1ccc(C(=O)Nc2cccc(S(C)(=O)=O)c2)c(N2CCCCC2)n1` [Example 41, 6-tert-butyl-N-(3-methylsulfonylphenyl)-2-(1-piperidyl)pyridine-3-carboxamide] the pIC50 was 5.33.
Compound `NS(=O)(=O)c1cccc(NC(=O)c2cc(C(F)(F)F)cnc2N2CC(C(F)(F)F)C2)c1` [Example 58, N-(3-sulfamoylphenyl)-5-(trifluoromethyl)-2-[3-(trifluoromethyl)-azetidin-1-yl]pyridine-3-carboxamide] has a pIC50 of 6.21.
With `CS(=O)(=O)c1cccc(NC(=O)c2ccc(Cl)nc2N2CCCC(F)(F)CC2)c1` [Example 9, 6-chloro-2-(4,4-difluoroazepan-1-yl)-N-(3-methylsulfonyl-phenyl)pyridine-3-carboxamide] the pIC50 was 8.15.
`C[Si](C)(C)c1cnc(N2CCCCCC2)c(C(=O)Nc2cccc(S(N)(=O)=O)c2)c1` [Example 86, 2-(azepan-1-yl)-N-(3-sulfamoylphenyl)-5-(trimethylsilyl)nicotinamide] was tested, and the pIC50 was 7.11.
In the case of `NS(=O)(=O)c1cccc(NC(=O)c2cc(C(F)(F)F)cnc2N2CCC(C(F)F)CC2)c1` [Example 50, 2-[4-(difluoromethyl)-1-piperidyl]-N-(3-sulfamoylphenyl)-5-(trifluoromethyl)-pyridine-3-carboxamide], the pIC50 was 6.62.
`CS(=O)(=O)c1cccc(NC(=O)c2ccc(C(F)(F)F)nc2N2CCCCCC2)c1` [Example 82, 2-(azepan-1-yl)-N-(3-(methylsulfonyl)phenyl)-6-(trifluoro-methyl)nicotinamide] gave a pIC50 of 7.22.
`Cc1nc(N2CCCCCC2)c(C(=O)Nc2cccc(S(N)(=O)=O)c2)cc1C#N` [Example 157, 2-(azepan-1-yl)-5-cyano-6-methyl-N-(3-sulfamoylphenyl)-pyridine-3-carboxamide] gave a pIC50 of 8.00.
Compound `NS(=O)(=O)c1cccc(NC(=O)c2cc(-c3cccnc3)cnc2N2CCCCCC2)c1` [Example 34, 2-(azepan-1-yl)-5-(3-pyridyl)-N-(3-sulfamoyl-phenyl)pyridine-3-carboxamide] has a pIC50 of 6.22.
`NS(=O)(=O)c1cccc(NC(=O)c2cc(C(F)(F)F)cnc2N2CCCO[C@@H](C(F)(F)F)C2)c1` [Example 144, (R)—N-(3-sulfamoylphenyl)-5-(trifluoromethyl)-2-(2-(trifluoromethyl)-1,4-oxazepan-4-yl) nicotinamide] was tested, and the pIC50 was 6.30.
With `CS(=O)(=O)c1cccc(NC(=O)c2cc(Br)cnc2N2CCCCCC2)c1` [Example 35, 2-(azepan-1-yl)-5-bromo-N-(3-methylsulfonyl-phenyl)pyridine-3-carboxamide] the pIC50 was 7.54.
In the case of `NS(=O)(=O)c1cccc(NC(=O)c2cc(C(F)(F)F)nnc2N2CCCC(F)(F)CC2)c1` [Example 181, 3-(4,4-difluoroazepan-1-yl)-N-(3-sulfamoylphenyl)-6-(trifluoromethyl)pyridazine-4-carboxamide], the pIC50 was 7.15.
For `Cc1cc(C(=O)Nc2cccc(C(N)=O)c2)c(N2CCCCCC2)nc1C` [Example 37, 2-(azepan-1-yl)-N-(3-carbamoylphenyl)-5,6-dimethyl-pyridine-3-carboxamide], the pIC50 was 6.97.
`NS(=O)(=O)c1cc(NC(=O)c2cc(C(F)(F)F)cnc2N2CCCCC2)ccc1F` [Example 115, N-(4-fluoro-3-sulfamoyl-phenyl)-2-(1-piperidyl)-5-(trifluoro-methyl)pyridine-3-carboxamide] showed a pIC50 of 6.25.
`NS(=O)(=O)c1cccc(NC(=O)c2cc(C(F)(F)F)cnc2N2CC3CC2CC3(F)F)c1` (single isomer, unassigned) [Example 138, 2-[(1R,4R or 1S,4S)-5,5-difluoro-2-azabicyclo-[2.2.1]heptan-2-yl]-N-(3-sulfamoylphenyl)-5-(trifluoromethyl)-pyridine-3-carboxamide] gave a pIC50 of 6.06.
With `CS(=O)(=O)c1cccc(NC(=O)c2cc(C(F)(F)F)cnc2N2CCCC(F)(F)C2)c1` [Example 102, 2-(3,3-difluoro-1-piperidyl)-N-(3-methylsulfonylphenyl)-5-(trifluoromethyl)-pyridine-3-carboxamide] the pIC50 was 6.15.
With `CC1CN(c2ncc(C(F)(F)F)cc2C(=O)Nc2cccc(S(N)(=O)=O)c2)CC(C)O1` (single isomer, unassigned) [Example 150, 2-[(2S,6S or 2R,6R)-2,6-dimethylmorpholin-4-yl]-N-(3-sulfamoylphenyl)-5-(trifluoromethyl) pyridine-3-carboxamide] the pIC50 was 6.38.
For `CS(=O)(=O)c1cccc(NC(=O)c2cc(C(F)(F)F)cnc2N2CCC(c3ccccc3)CC2)c1` [Example 105, N-(3-methylsulfonylphenyl)-2-(4-phenyl-1-piperidyl)-5-(trifluoro-methyl)pyridine-3-carboxamide], the pIC50 was 5.06.
For `O=C(Nc1ccc2c(c1)S(=O)(=O)C=C2)c1cc(C(F)(F)F)cnc1N1CCCCCC1` [Example 118, 2-(azepan-1-yl)-N-(1,1-dioxobenzothiophen-6-yl)-5-(trifluoromethyl)-pyridine-3-carboxamide], the pIC50 was 5.64.
With `NS(=O)(=O)c1cccc(NC(=O)c2cc(C(F)(F)F)cnc2N2CC3COC(C3)C2)c1` (centres unmarked) [Example 64, 2-(6-oxa-3-azabicyclo[3.2.1]octan-3-yl)-N-(3-sulfamoyl-phenyl)-5-(trifluoro-methyl)pyridine-3-carboxamide] the pIC50 was 5.67.
For `Cc1nc2c(o1)CCN(c1ncc(C(F)(F)F)cc1C(=O)Nc1cccc(S(N)(=O)=O)c1)C2` [Example 73, 2-(2-methyl-6,7-dihydro-4H-oxazolo[4,5-c]pyridin-5-yl)-N-(3-sulfamoyl-phenyl)-5-(trifluoro-methyl)pyridine-3-carboxamide], the pIC50 was 5.08.
In the case of `NS(=O)(=O)c1cccc(NC(=O)c2cc(C(F)(F)F)cnc2N2CC3CC(F)(F)C3C2)c1` (single isomer, unassigned) [Example 135, 2-[(1S,5R or 1R,5S)-6,6-difluoro-3-azabicyclo[3.2.0]heptan-3-yl]-N-(3-sulfamoyl-phenyl)-5-(trifluoro-methyl)pyridine-3-carboxamide], the pIC50 was 7.43.
`COC(=O)N1CCN(c2ncc(C(F)(F)F)cc2C(=O)Nc2cccc(S(N)(=O)=O)c2)CC1` [Example 74, methyl 4-[3-[(3-sulfamoylphenyl)carbamoyl]-5-(trifluoro-methyl)-2-pyridyl]-piperazine-1-carboxylate] showed a pIC50 of 5.00.
